The record followed here is patent publication US5821247A, “Hydroquinone derivative and pharmaceutical use thereof” (Japan Energy Corporation, priority 1996, dated 1998).

In data set [1] the test system is picryl chloride-induced dermatitis. Nature of the data set: Inhibition of picryl chloride-induced dermatitis (type IV allergic inflammation model, ear swelling, Asherson's method). The data set is classed as in vivo, ICR male mice. The following applies: applied on ear just after challenge, ear thickness at 24 h. As for the experimental part:
Evaluation 1: Inhibition of picryl chloride-induced dermatitis
Effect of the compounds of the present invention on picryl chloride-induceddermatitis, which is a typical model of type IV allergic inflammation, was estimated by the Asherson's method [Immunology, 15, 405 (1968)] in the following manner.
A 7% (w/v) solution of picryl chloride in acetone (0.1 mL) was applied on a portion of the abdominal skin of each of ICR male mice to sensitize the mice. After 7 days, a 1% (w/v) solution of picryl chloride in acetone (0.02 mL) was applied on the ears of the individual mice to induce allergic reaction. Just after the challenge, 0.04 mL of acetone (control) or a 0.25-2.5% (w/v) solution of the test compound in acetone was applied on the ear. Increase of the ear thickness of the individual mice was measured at 24 h after the challenge, and inhibitory effect of the test compound on the dermatitis was estimated based on the difference in ear thickness between before and after the induction of the allergic reaction.

A short description of data set [2]: Metabolite found in plasma after oral administration of the compound of Example 1. The data set is classed as in vivo. The settings on record: compound of Example 1 orally administered to guinea pig. The text has this: The title compound was obtained by repeating substantially the same procedure as Example 1, except using 4-(3,5,6-trimethyl-1,4-benzoquinon-2-yl)-2-hydroxy-2-methylbutyric acid which had been prepared by oxidation of 6-hydroxy-2,5,7,8-tetramethylchroman-2-carboxylic acid with ammonium cerium (IV) nitrate (yield 62%).

The test system of data set [3] is albumin-induced asthma. Nature of the data set: Inhibition of albumin-induced asthma (air way resistance, double flow plethysmography). The following applies: 100 mg/kg, orally 1 h before and 3 h after the challenge. The class given is in vivo, Hartley male guinea pigs. As for the experimental part: Evaluation 2: Inhibition of albumin-induced asthma
Effect of the compounds of the present invention on albumin-induced asthma was estimated in the following manner.
Inhalation of 1% ovalbumin using ultrasonic nebulizer into Hartley male guinea pigs was performed 10 min/day over 8 days to sensitize the guinea pigs. One week after the last sensitization, inhalation of 2% ovalbumin was performed for 5 min. to induce allergic reaction. Metyrapone (10 mg/kg, i.v.) was administered at 24 h and 1 h before the challenge, propylene glycol (control) or a solution of the test compound in propylene glycol was orally administered at 1 h before and 3 h after the challenge, and pyrilamine (10 mg/kg, i.p.) was intraperitoneally administered at 30 min before the challenge. Air way resistance was measured by double flow plethysmography at 1 min, 4 h, 5 h, 6 h, 7 h, and 8 h after the challenge, and inhibitory effect of the test compound on the asthma was estimated based on the measurements obtained.

[4] abbreviates: concentration 0.25% (w/v) in acetone.
The mark [5] stands for this setting: concentration 0.75% (w/v) in acetone.

In the case of `CCCCN(Cc1c(N)n(-c2ccccc2)c(=O)n(C)c1=O)C(=O)C1(C)CCc2c(C)c(O)c(C)c(C)c2O1` (stereo not drawn) [Example 19, 6-Amino-5-(N-butyl-6-hydroxy-2,5,7,8-tetramethylchroman-2-carboxamidomethyl)-3-methyl-1-phenyl-2,4 (1H, 3H)-pyrimidinedione], in data set [1] (setting [4]), the “Inhibition (%) of picryl chloride-induced dermatitis” value (shortened to “Inhibition (%)”) was 49%.

On to `CC1=C(C)C(=O)C(CCC(C)(O)C(=O)Nc2c(N)n(-c3ccccc3)c(=O)n(C)c2=O)=C(C)C1=O` (stereo not drawn) [Example 15, 6-Amino-3-methyl-1-phenyl-5-[4-(3,5,6-trimethyl-1,4-benzoquinon-2-yl)-2-hydroxy-2-methylbutyramido]-2,4 (1H, 3H)-pyrimidinedione], for which the “found in plasma as metabolite of the compound of Example 1” value in data set [2] is recorded as “found in plasma a guinea pig as one of metabolites”. Also, the “Inhibition (%)” value in data set [1] (setting [5]) is listed as 70%. For `CNc1c(NC(=O)C2(C)CCc3c(C)c(O)c(C)c(C)c3O2)c(=O)n(C)c(=O)n1-c1ccccc1` (stereo not drawn) [Example 11, 5-(6-Hydroxy-2,5,7,8-tetramethvlchroman-2-carboxamido)-3-methyl-6-methylamino-1-phenyl-2,4 (1H, 3H) -pyrimidinedione], in data set [1] (setting [5]), the “Inhibition (%)” value turned out to be 44%. Turning to `Cc1c(C)c2c(c(C)c1O)CCC(C)(C(=O)Nc1c(N)n(-c3ccccc3)c(=O)n(C)c1=O)O2` (stereo not drawn) [Example 1, 6-Amino-5-(6-hydroxy-2,5,7,8-tetramethvlchroman-2-carboxamido)-3-methyl-1-phenyl-2,4 (1H. 3H)-pyrimidinedione], the “Inhibition (%)” value in data set [1] (setting [4]) is 69%. Moreover, the “inhibition on the air way reaction at 1 min after the challenge” value in data set [3] (1 min after the challenge) turned out to be 62%. In addition, the “inhibition on the air way reaction (AUC) during 4-8 h after the challenge” value in data set [3] (AUC 4-8 h) came to 50%. In the case of `Cc1c(C)c2c(c(C)c1O)CCC(C)(CNc1c(N)n(-c3ccccc3)c(=O)n(C)c1=O)O2` (stereo not drawn) [Example 17, 6-Amino-5-[(6-hydroxy-2,5,7,8-tetramethyl-2-chromanylmethyl)amino]-3-methyl-1-phenyl-2,4 (1H, 3H) -pyrimidinedione], the “Inhibition (%)” value in data set [1] (setting [5]) worked out at 80%. Turning to `CC(=O)Oc1c(C)c(C)c2c(c1C)CCC(C)(C(=O)Nc1c(N)n(-c3ccccc3)c(=O)n(C)c1=O)O2` (stereo not drawn) [Example 14, 5-(6-Acetoxy-2.5,7,8-tetramethvlchroman-2-carboxamido)-6-amino-3-methyl-1-phenyl-2,4 (1H, 3H)-pyrimidinedione], in data set [1] (setting [5]), the “Inhibition (%)” value was 53%.

As to `COc1c(C)c(C)c2c(c1C)CCC(C)(C(=O)Nc1c(N)n(-c3ccccc3)c(=O)n(C)c1=O)O2` (stereo not drawn) [Example 13, 6-Amino-5-(6-methoxy-2,5.7,8-tetramethylchroman-2-carboxamido)-3-methyl-1-phenyl-2,4 (1H, 3H)-pyrimidinedione], the “Inhibition (%)” value in data set [1] (concentration 2.50% (w/v) in acetone) came to 33%. For `Cc1c(C)c2c(c(C)c1O)CC[C@](C)(C(=O)Nc1c(N)n(-c3ccccc3)c(=O)n(C)c1=O)O2` [Example 2], in data set [1] (setting [5]), the “Inhibition (%)” value is recorded as 65%.

In the case of `Cc1c(C)c2c(c(C)c1O)CC[C@@](C)(C(=O)Nc1c(N)n(-c3ccccc3)c(=O)n(C)c1=O)O2` [Example 3, 6-Amino-5-(6-hydroxy-2,5,7,8-tetramethylchroman-2(S)-carboxamido)-3-methyl-1-phenyl-2,4 (1H, 3H) -pyrimidinedione], the “Inhibition (%)” value in data set [1] (setting [5]) stood at 69%.
